From patent publication US5942518A, “Water-soluble fluoroethylcamptothecin derivative and process for production thereof” (priority 1995, dated 1999)
Structures can show the parent of a compound that is named as a salt.

How the values were obtained:
[1] = Toxicity in the colon 26 mouse study; type: in vivo, CDF-1 female mice
Experimental: (§1) To CDF-1 female mice of 9-week age, 1×10^6 cells of mouse colonic cancer colon 26 were implanted respectively under the skin of the axillary fossa. The medicine was administered to the tail vein three times from six days after the administration when the tumor was detected by finger touch at intervals of four days. On the 17th to 19th days from the implantation,the tumors were enucleated and weighed. The antineoplastic effect is represented by the tumor growth inhibition rate (TGI=(1-T/C)×100) derived from the ratio (T/C) of the average tumor weight (T) of the medicine-administered group to the average tumor weight (C) of the control group.

[2] = test system: sarcoma 180; assay: Antineoplastic effect against mouse sarcoma 180 tumor (Experimental Example 1); type: in vivo, ICR female mice; conditions: sarcoma 180, tail vein, 3 times at 4-day intervals, day 14
Experimental: To ICR female mice of 5-week age, 5×10^6 cells of sarcoma 180 were implanted respectively under the skin of the axillary fossa. The medicine was administered to the tail vein three times from the day next to the administration at intervals of four days. After 14 days from the implantation, the tumors were enucleated and weighed. The antineoplastic effect is represented by the tumor growth inhibition rate (TGI=(1-T/C)×100) derived from the ratio (T/C) of the average tumor weight (T) of the medicine-administered group to the average tumor weight (C) of the control group.

[3] = test system: mouse colonic cancer colon 26; assay: Antineoplastic effect against mouse colonic cancer colon 26 (Experimental Example 2); type: in vivo, CDF-1 female mice; conditions: for TGI (tumor growth inhibition rate): colon 26, tail vein, 3 times at 4-day intervals, day 17-19; for antineoplastic activity against the growth of advanced colonic cancer 26 tumor: mice, intravenous administration
Experimental: as §1

[4] = biological target: acetylcholine esterase; assay: Inhibition of acetylcholine esterase reaction (Experimental Example 3); type: biochemical
Sequence of acetylcholine esterase (P22303 32-614): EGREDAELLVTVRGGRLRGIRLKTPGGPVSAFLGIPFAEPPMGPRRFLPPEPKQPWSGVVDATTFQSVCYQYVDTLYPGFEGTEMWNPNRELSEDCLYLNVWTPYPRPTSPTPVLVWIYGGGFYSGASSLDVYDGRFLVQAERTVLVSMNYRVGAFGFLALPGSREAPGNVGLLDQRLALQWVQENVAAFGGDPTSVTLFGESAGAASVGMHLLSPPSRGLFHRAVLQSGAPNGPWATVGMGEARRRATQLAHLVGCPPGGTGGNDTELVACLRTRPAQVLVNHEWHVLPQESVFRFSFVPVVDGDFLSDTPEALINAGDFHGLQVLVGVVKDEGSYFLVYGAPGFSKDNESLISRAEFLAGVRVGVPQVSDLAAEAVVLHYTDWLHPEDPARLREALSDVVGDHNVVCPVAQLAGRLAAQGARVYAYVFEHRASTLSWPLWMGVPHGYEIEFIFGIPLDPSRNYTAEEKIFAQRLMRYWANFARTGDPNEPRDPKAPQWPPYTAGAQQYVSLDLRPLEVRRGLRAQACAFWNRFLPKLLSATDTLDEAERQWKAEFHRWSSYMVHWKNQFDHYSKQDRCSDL
Experimental: The absorbance was measured at 412 nm. The reaction rate and the acetylthiocholine iodide concentration was plotted according to Lineweaver-Burk method to obtain Vmax, and Km. Then, the inhibition constant (Ki) was calculated from the inhibitor concentration.

[5] = cited from earlier work
[6] = test system: nucleic acid synthesis; conditions: background; cited from earlier work

Row | Compound | TGI (tumor growth inhibition rate) ([2]; total dose 60 mg/kg) | TGI (tumor growth inhibition rate) ([2]; total dose 120 mg/kg) | TGI (tumor growth inhibition rate) ([3]; total dose 30 mg/kg) | TGI (tumor growth inhibition rate) ([3]; total dose 60 mg/kg) | TGI (tumor growth inhibition rate) ([3]; total dose 120 mg/kg) | antineoplastic activity against the growth of advanced colonic cancer 26 tumor [3] | also measured
1 | CCc1c2c(nc3ccc(OC(=O)N4CCC(N5CCCCC5)CC4)cc13)-c1cc3c(c(=O)n1C2)COC(=O)[C@]3(O)CC [Irinotecan hydrochloride, irinotecan hydrochloride] | 75% | 74% | 8% | 28% | 34% | not inhibited | Toxicity ([1]; colon 26 mice, tail vein, total dose 120 mg/kg): Toxic; TGI (tumor growth inhibition rate) ([2]; total dose 30 mg/kg): 44%
2 | CCOc1ccc2nc3c(c(CC)c2c1)Cn1c-3cc2c(c1=O)COC(=O)C2(CCF)OC(=O)CN (stereo not drawn) [Example 1, 4-[(aminomethylcarbonyl)oxy]-9-ethoxy-11-ethyl-4-(2-fluoroethyl)-1H-pyrano[3',4':6,7]indolidino[1,2-b]quinoline-3,14(4H,12H)-dione hydrochloride] | 83% | 91% | 28% | 59% | 81% | – | Ki [4]: 20 to 40 µM; TGI (tumor growth inhibition rate) ([3]; total dose 180 mg/kg): 82%
3 | CCC1(OC(=O)CN)C(=O)OCc2c1cc1n(c2=O)Cc2cc3cc4c(cc3nc2-1)OCO4 (stereo not drawn) [10,11-methylenedioxy-20-O-glycylcamptothecin] | – | – | – | – | – | – | toxicity / side effects ([5]; known camptothecin derivatives, background): highly toxic
4 | CC[C@@]1(O)C(=O)OCc2c1cc1n(c2=O)Cc2cc3ccccc3nc2-1 [camptothecin, Camptothecin] | – | – | – | – | – | – | antineoplastic activity by inhibiting nucleic acid synthesis [6]: exhibit antineoplastic activity by inhibiting nucleic acid synthesis; clinical toxicity ([5]; clinical tests in the United States): discontinued because of its toxicity
5 | CC[C@@]1(OC(=O)CN)C(=O)OCc2c1cc1n(c2=O)Cc2cc3cc4c(cc3nc2-1)OCO4.Cl [Compound 1, 10,11-Methylenedioxy-20-O-glycylcamptothecin hydrochloride] | – | – | 44% | – | – | not inhibited | Toxicity ([1]; at a dose of as low as 20 mg/kg): toxic; Toxicity ([1]; colon 26 mice, tail vein, total dose 60 mg/kg): Toxic; TGI (tumor growth inhibition rate) ([3]; total dose 7.5 mg/kg): 21%; TGI (tumor growth inhibition rate) ([3]; total dose 15 mg/kg): 22%
